Measured values published in patent EP4122466A1 (priority 2021, dated 2023).
“Also recorded” adds a separate entry of the source.

Experiments:
VSV*ΔG(Luc)-S virus = assay: organism not typed; format: cell-based
SARS-CoV-2 pseudovirus = format: cell-based
VSV.G virus = format: cell-based
[1] = tested on: Human Lung Tissue (HTL) cells
SARS-CoV-2 = settings: cited from earlier work

Cc1cccc(/C=N/Nc2cc(N3CCOCC3)nc(OCCc3ccccn3)n2)c1 [apilimod]
decrease in infection rate (VSV*ΔG(Luc)-S virus): lower decrease in infection rate
infection rate (VSV*ΔG(Luc)-S virus): 50%
inhibition of virus infection (SARS-CoV-2 pseudovirus): dose-dependent inhibition of virus infection
inhibition of the VSV.G virus (VSV.G virus): partially inhibit

CN1CCN(c2ccc(C(=O)Nc3n[nH]c4ccc(Cc5cc(F)cc(F)c5)cc34)c(NC3CCOCC3)c2)CC1 [entrectinib]
EC50 (VSV*ΔG(Luc)-S virus): < 1 µM
cell death [1]: without inducing significant cell death
inhibition of virus infection (SARS-CoV-2 pseudovirus): dose-dependent inhibition of virus infection
inhibition of the VSV.G virus (VSV.G virus): partially inhibit; also recorded: demonstrated an antiviral effect

Cc1ccc(NC(=O)c2ccc(CN3CCN(C)CC3)cc2)cc1Nc1nccc(-c2cccnc2)n1 [imatinib]
in vitro activity against SARS-CoV-2 (SARS-CoV-2): do not show antiviral efficacy

Cc1cn(-c2cc(NC(=O)c3ccc(C)c(Nc4nccc(-c5cccnc5)n4)c3)cc(C(F)(F)F)c2)cn1 [nilotinib]
in vitro activity against SARS-CoV-2 (SARS-CoV-2): did show in vitro antiviral effect
EC50 (VSV*ΔG(Luc)-S virus): > 15 µM
inhibition of virus infection (SARS-CoV-2 pseudovirus): dose-dependent inhibition of virus infection
inhibition of the VSV.G virus (VSV.G virus): partially inhibit
